Assay results: US20080181866A1, “Amido Anti-viral Compounds” (Genelabs Technologies, Inc., priority 2006, published 2008)

Tested on: HCV replication
Assay: HCV replicon assay (luciferase) in ET (Huh-lucubineo-ET) cell line
Format: cell-based
Settings: Hepatitis C virus, tested at 5 μM; ET replicon cells; luciferase activity measured 48-72 hours later; relative to no compound control
Outline: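 Huh-lucubineo-ET cells stably carry a subgenomic replicon with a firefly luciferase–ubiquitin–neo fusion and adaptive NS3-5B mutations; they were seeded 24 h before compound addition (0.1 nM–50 μM, 0.5% DMSO). Luciferase was read 48–72 h later as % inhibition versus no-compound control, with parallel WST-1 cytotoxicity. EC50 and TC50 came from 10-point 2-fold dilutions fitted to a Hill equation.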

Row | SMILES | inhibition at 5 µM [%]
1 | O=C(NC1CC1)c1ccc(-c2csc(NC(=O)[C@@H]3C[C@@H](Cc4ccccc4)CN3C(=O)OCc3ccccc3)n2)cc1 [Compound 7006, (2S,4R)-4-Benzyl-2-[4-(4-cyclopropylcarbamoyl-phenyl)-thiazol-2-ylcarbamoyl]-pyrrolidine-1-carboxylic acid benzyl ester] | 98.4
2 | O=C(NC1CC1)c1ccc(-c2csc(NC(=O)[C@@H]3CS[C@@H](c4cccnc4)N3C(=O)OCc3ccccc3)n2)cc1 [Compound 7009, (2S,4R)-4-[4-(4-Cyclopropylcarbamoyl-phenyl)-thiazol-2-ylcarbamoyl]-2-pyridin-3-yl-thiazolidine-3-carboxylic acid benzyl ester] | 99.9
3 | O=C(NC1CC1)c1ccc(-c2csc(NC(=O)[C@@H]3CSC(c4ccccn4)N3C(=O)OCc3ccccc3)n2)cc1 (stereo partly drawn) [Compound 7010, (R)-4-[4-(4-Cyclopropylcarbamoyl-phenyl)-thiazol-2-ylcarbamoyl]-2-pyridin-2-yl-thiazolidine-3-carboxylic acid benzyl ester] | 98.1
4 | O=C(NC1CC1)c1ccc(-c2csc(NC(=O)[C@@H]3COC(c4ccncc4)N3C(=O)OCc3ccccc3)n2)cc1 (stereo partly drawn) [Compound 7011, (S)-4-[4-(4-Cyclopropylcarbamoyl-phenyl)-thiazol-2-ylcarbamoyl]-2-pyridin-4-yl-oxazolidine-3-carboxylic acid benzyl ester] | 98.8
5 | O=C(NC1CCCC1)c1ccc(-c2csc(NC(=O)[C@@H]3CSC(c4ccncc4)N3C(=O)OCc3ccccc3)n2)cc1 (some centres unmarked) [Compound 7012, 4-[4-(4-Cyclopentylcarbamoyl-phenyl)-thiazol-2-ylcarbamoyl]-2-pyridin-4-yl-thiazolidine-3-carboxylic acid benzyl ester] | 98.8
6 | O=C(Nc1ccccc1)[C@@H]1CSC(c2cccnc2)N1C(=O)OCc1ccccc1 (some centres unmarked) [Compound 7018, 4-Phenylcarbamoyl-2-pyridin-3-yl-thiazolidine-3-carboxylic acid benzyl ester] | 47.6
7 | O=C(NC1CC1)c1ccc(-c2csc(NC(=O)C3Cc4ccccc4N3C(=O)OCc3ccccc3)n2)cc1 (centres unmarked) [Compound 7019, 2-[4-(4-Cyclopropylcarbamoyl-phenyl)-thiazol-2-ylcarbamoyl]-2,3-dihydro-indole-1-carboxylic acid benzyl ester] | 98.3
8 | CC(C)(C)OC(=O)N1c2ccccc2C[C@H]1C(=O)Nc1nc(-c2ccc(C(=O)NC3CC3)cc2)cs1 [Compound 7020, (S)-2-[4-(4-Cyclopropylcarbamoyl-phenyl)-thiazol-2-ylcarbamoyl]-2,3-dihydro-indole-1-carboxylic acid tert-butyl ester] | 99.5
9 | O=C(Nc1nc(-c2ccccc2)cs1)[C@@H]1Cc2ccccc2N1C(=O)OCc1ccccc1 [Compound 7023, (S)-2-(4-Phenyl-thiazol-2-ylcarbamoyl)-2,3-dihydro-indole-1-carboxylic acid benzyl ester] | 78.5
10 | CC1SC[C@@H](C(=O)Nc2nc(-c3ccc(C(=O)NC4CC4)cc3)cs2)N1C(=O)OCc1ccccc1 (stereo partly drawn) [Compound 7024, (R)-4-[4-(4-Cyclopropylcarbamoyl-phenyl)-thiazol-2-ylcarbamoyl]-2-methyl-thiazolidine-3-carboxylic acid benzyl ester] | 99.7
11 | O=C(Nc1nc(-c2ccccc2)cs1)[C@@H]1CSC(c2ccncc2)N1C(=O)OCc1ccccc1 (some centres unmarked) [Compound 7026, 4-(4-Phenyl-thiazol-2-ylcarbamoyl)-2-pyridin-4-yl-thiazolidine-3-carboxylic acid benzyl ester] | 89.1
12 | CC(C)(C)OC(=O)N1C[C@@H](c2ccccc2)C[C@H]1C(=O)Nc1nc(-c2ccc(C(=O)NC3CC3)cc2)cs1 [Compound 7027, (2S,4R)-2-[4-(4-Cyclopropylcarbamoyl-phenyl)-thiazol-2-ylcarbamoyl]-4-phenyl-pyrrolidine-1-carboxylic acid tert-butyl ester] | 6.9
13 | O=C(NC1CC1)c1ccc(-c2csc(NC(=O)[C@@H]3CS[C@H](c4cccnc4)N3C(=O)OCc3ccccc3)n2)cc1 [Compound 7028, (2R,4R)-4-[4-(4-Cyclopropylcarbamoyl-phenyl)-thiazol-2-ylcarbamoyl]-2-pyridin-3-yl-thiazolidine-3-carboxylic acid benzyl ester] | 100
14 | CC(C)(C)OC(=O)N1C[C@H](c2ccccc2)C[C@H]1C(=O)Nc1nc(-c2ccc(C(=O)NC3CC3)cc2)cs1 [Compound 7038, (2S,4S)-2-[4-(4-Cyclopropylcarbamoyl-phenyl)-thiazol-2-ylcarbamoyl]-4-phenyl-pyrrolidine-1-carboxylic acid tert-butyl ester] | 48.4
15 | O=C(NC1CC1)c1ccc(-c2csc(NC(=O)[C@@H]3Cc4ccccc4N3C(=O)OCc3ccccc3)n2)cc1 [Compound 7039, (S)-2-[4-(4-Cyclopropylcarbamoyl-phenyl)-thiazol-2-ylcarbamoyl]-2,3-dihydro-indole-1-carboxylic acid benzyl ester] | 100
16 | C=C1C[C@@H](C(=O)Nc2nc(-c3ccc(C(=O)NC4CC4)cc3)cs2)N(C(=O)OC(C)(C)C)C1 [Compound 7040, (S)-2-[4-(4-Cyclopropylcarbamoyl-phenyl)-thiazol-2-ylcarbamoyl]-4-methylene-pyrrolidine-1-carboxylic acid tert-butyl ester] | 89.9
17 | CC(C)(C)NC(=O)c1ccc(-c2csc(NC(=O)[C@@H]3CSC(c4ccncc4)N3C(=O)OCc3ccccc3)n2)cc1 (some centres unmarked) [Compound 7041, 4-[4-(4-tert-Butyl-carbamoyl-phenyl)-thiazol-2-ylcarbamoyl]-2-pyridin-4-yl-thiazolidine-3-carboxylic acid benzyl ester] | 100
18 | O=C(NC1CC1)c1ccc(-c2csc(NC(=O)[C@@H]3C[C@@H]4CCCC[C@@H]4N3C(=O)OCc3ccccc3)n2)cc1 [Compound 7043, (2S,3aS,7aS)-2-[4-(4-Cyclopropylcarbamoyl-phenyl)-thiazol-2-ylcarbamoyl]-octahydro-indole-1-carboxylic acid benzyl ester] | 100
19 | O=C(NC1CC1)c1ccc(-c2csc(NC(=O)[C@@H]3CSC(c4ccccc4)N3C(=O)OCc3ccccc3)n2)cc1 (stereo partly drawn) [Compound 7044, (R)-4-[4-(4-Cyclopropylcarbamoyl-phenyl)-thiazol-2-ylcarbamoyl]-2-phenyl-thiazolidine-3-carboxylic acid benzyl ester] | 98
20 | O=C(NC1CC1)c1ccc(-c2csc(NC(=O)[C@@H]3CC[C@H](c4ccc(CN5CCOCC5)cc4)N3C(=O)OCc3ccccc3)n2)cc1 [Compound 7045, (2S,5R)-2-[4-(4-Cyclopropylcarbamoyl-phenyl)-thiazol-2-ylcarbamoyl]-5-(4-morpholin-4-ylmethyl-phenyl)-pyrrolidine-1-carboxylic acid benzyl ester] | 100
21 | O=C(NC1CC1)c1ccc(-c2csc(NC(=O)[C@@H]3COC(c4ccccc4)N3C(=O)OCc3ccccc3)n2)cc1 (stereo partly drawn) [Compound 7046, (S)-4-[4-(4-Cyclopropylcarbamoyl-phenyl)-thiazol-2-ylcarbamoyl]-2-phenyl-oxazolidine-3-carboxylic acid benzyl ester] | 99.1
22 | O=C(NC1CC1)c1ccc(-c2csc(NC(=O)[C@@H]3CSC(c4cc[n+]([O-])cc4)N3C(=O)OCc3ccccc3)n2)cc1 (stereo partly drawn) [Compound 7050, (R)-4-[4-(4-Cyclopropylcarbamoyl-phenyl)-thiazol-2-ylcarbamoyl]-2-(1-oxy-pyridin-4-yl)-thiazolidine-3-carboxylic acid benzyl ester] | 100
23 | O=C(NC1CC1)c1ccc(-c2csc(NC(=O)[C@@H]3CC[C@H](c4ccccc4)N3C(=O)OCc3ccccc3)n2)cc1 [Compound 7052, (2S,5R)-2-[4-(4-Cyclopropylcarbamoyl-phenyl)-thiazol-2-ylcarbamoyl]-5-phenyl-pyrrolidine-1-carboxylic acid benzyl ester] | 98.9
24 | O=C(Nc1nc(-c2ccccc2)cs1)[C@@H]1CS[C@H](c2cccnc2)N1C(=O)OCc1ccccc1 [Compound 7058, (2R,4R)-4-(4-Phenyl-thiazol-2-ylcarbamoyl)-2-pyridin-3-yl-thiazolidine-3-carboxylic acid benzyl ester] | 99.9
25 | O=C(Cc1ccc(NC(=O)[C@@H]2CSC(c3ccncc3)N2C(=O)OCc2ccccc2)cc1)NC1CC1 (some centres unmarked) [Compound 7068, 4-(4-Cyclopropylcarbamoylmethyl-phenylcarbamoyl)-2-pyridin-4-yl-thiazolidine-3-carboxylic acid benzyl ester] | 6
26 | O=C(NC1CC1)c1ccc(-c2csc(NC(=O)[C@@H]3CSC(C4CCOCC4)N3C(=O)[C@@H]3CCCO3)n2)cc1 (some centres unmarked) [Compound 7069, 3-(Tetrahydro-furan-2-carbonyl)-2-(tetrahydro-pyran-4-yl)-thiazolidine-4-carboxylic acid [4-(4-cyclopropylcarbamoyl-phenyl)-thiazol-2-yl]-amide] | 98.8
27 | CC(C)(C)C(=O)N1C(C2CCOCC2)SC[C@H]1C(=O)Nc1nc(-c2ccc(C(=O)NC3CC3)cc2)cs1 (some centres unmarked) [Compound 7070, 3-(2,2-Dimethyl-propionyl)-2-(tetrahydro-pyran-4-yl)-thiazolidine-4-carboxylic acid [4-(4-cyclopropylcarbamoyl-phenyl)-thiazol-2-yl]-amide] | 96.1
28 | O=C(NC1CC1)c1ccc(-c2csc(NC(=O)[C@@H]3CSC(CCCCC(=O)N4CCOCC4)N3C(=O)OCc3ccccc3)n2)cc1 (some centres unmarked) [Compound 7071, 4-[4-(4-Cyclopropylcarbamoyl-phenyl)-thiazol-2-ylcarbamoyl]-2-(5-morpholin-4-yl-5-oxo-pentyl)-thiazolidine-3-carboxylic acid benzyl ester] | 100
29 | O=C(Cc1cccc(NC(=O)[C@@H]2CSC(c3ccncc3)N2C(=O)OCc2ccccc2)c1)Nc1ccccc1 (some centres unmarked) [Compound 7072, 4-(3-Phenylcarbamoylmethyl-phenylcarbamoyl)-2-pyridin-4-yl-thiazolidine-3-carboxylic acid benzyl ester] | 80.8
